Measured values from article PMC2749987 (European journal of pharmacology, 2009).
Like-named read-outs stand apart in the source and are kept apart here.

Assays:
human 5-HT2C receptor [1] = molecular target: T1, human 5-HT2C receptor (Homo sapiens, UniProt P28335); format: binding; conditions: for nH (Hill slope), 5-HT2C binding: competition binding
T1 sequence (P28335 33-458): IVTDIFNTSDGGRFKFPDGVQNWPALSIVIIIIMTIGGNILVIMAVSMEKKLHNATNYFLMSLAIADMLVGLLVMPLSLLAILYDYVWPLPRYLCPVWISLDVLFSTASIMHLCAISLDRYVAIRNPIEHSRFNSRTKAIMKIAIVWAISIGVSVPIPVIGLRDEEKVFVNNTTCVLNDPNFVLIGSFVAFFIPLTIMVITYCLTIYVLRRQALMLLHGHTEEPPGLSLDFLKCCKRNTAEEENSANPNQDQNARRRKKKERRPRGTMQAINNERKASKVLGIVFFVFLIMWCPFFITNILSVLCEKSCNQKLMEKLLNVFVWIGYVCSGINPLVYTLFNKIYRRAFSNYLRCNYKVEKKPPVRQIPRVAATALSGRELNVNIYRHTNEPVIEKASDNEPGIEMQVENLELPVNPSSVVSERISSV

mice = conditions: intraperitoneal single-dose, ref Rowland et al., 2008, cited from earlier work
human 5-HT2A receptor [2] = molecular target: T2, human 5-HT2A receptor (Homo sapiens, UniProt P28223); format: cell-based
T2 sequence (P28223 whole entry): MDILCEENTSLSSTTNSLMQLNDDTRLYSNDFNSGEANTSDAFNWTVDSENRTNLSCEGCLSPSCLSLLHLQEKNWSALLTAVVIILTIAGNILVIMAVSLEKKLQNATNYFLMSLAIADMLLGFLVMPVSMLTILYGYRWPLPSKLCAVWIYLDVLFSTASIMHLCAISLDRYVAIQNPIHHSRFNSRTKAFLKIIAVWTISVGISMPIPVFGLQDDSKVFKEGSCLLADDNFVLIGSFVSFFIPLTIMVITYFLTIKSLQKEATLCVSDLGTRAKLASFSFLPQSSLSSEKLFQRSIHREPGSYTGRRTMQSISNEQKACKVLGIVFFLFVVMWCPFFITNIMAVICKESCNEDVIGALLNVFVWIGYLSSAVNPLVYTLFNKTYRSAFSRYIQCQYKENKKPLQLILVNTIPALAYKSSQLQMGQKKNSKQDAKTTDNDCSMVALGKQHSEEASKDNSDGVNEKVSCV

human 5-HT2B receptor [3] = molecular target: T3, human 5-HT2B receptor (Homo sapiens, UniProt P41595)
T3 sequence (P41595 whole entry): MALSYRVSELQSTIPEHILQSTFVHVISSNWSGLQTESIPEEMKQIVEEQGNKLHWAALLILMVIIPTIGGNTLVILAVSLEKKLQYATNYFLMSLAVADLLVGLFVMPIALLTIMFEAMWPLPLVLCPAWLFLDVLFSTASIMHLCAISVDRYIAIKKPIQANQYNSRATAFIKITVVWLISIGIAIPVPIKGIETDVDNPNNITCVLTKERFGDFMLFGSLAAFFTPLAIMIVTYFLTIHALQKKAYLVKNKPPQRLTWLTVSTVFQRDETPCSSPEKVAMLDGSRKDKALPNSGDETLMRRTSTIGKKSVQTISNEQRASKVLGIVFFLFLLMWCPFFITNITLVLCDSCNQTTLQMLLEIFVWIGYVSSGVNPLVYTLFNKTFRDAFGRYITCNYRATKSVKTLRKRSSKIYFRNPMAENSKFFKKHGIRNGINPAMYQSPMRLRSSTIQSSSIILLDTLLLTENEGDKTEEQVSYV

human 5-HT2B receptor [4] = molecular target: T3, human 5-HT2B receptor; format: binding; conditions: for nH (Hill slope), 5-HT2B binding: competition binding
human 5-HT2A receptor [5] = molecular target: T2, human 5-HT2A receptor; format: binding; conditions: for nH (Hill slope), 5-HT2A binding: competition binding
human 5-HT2C receptor [6] = molecular target: T1, human 5-HT2C receptor; format: cell-based
5-HT2A = conditions: ref Knight et al., 2004; cited from earlier work
5-HT2A receptors [7] = conditions: read-out: affinity at 5-HT2A receptors Ki, ref Jensen, 2006, Smith et al., Thomsen et al., 2008; cited from earlier work
5-HT2B receptors [8] = conditions: read-out: affinity at 5-HT2B receptors Ki, ref Jensen, 2006, Smith et al., Thomsen et al., 2008; cited from earlier work
5-HT2A receptors [9] = conditions: ref Jensen, 2006, Smith et al., Thomsen et al., 2008; cited from earlier work
5-HT2B receptors [10] = conditions: ref Jensen, 2006, Smith et al., Thomsen et al., 2008; cited from earlier work
5-HT2C receptors = conditions: ref Jensen, 2006, Smith et al., Thomsen et al., 2008; cited from earlier work
rats = conditions: oral single-dose, ref Thomsen et al., 2008, cited from earlier work
[11] = read-out: 5-HT2B Ki ± SEM, competition vs 5.0 nM [3H]-mesulergine
[12] = read-out: 5-HT2A Ki ± SEM, competition vs 1.0 nM [3H]-ketanserin

CN(C)[C@@H]1Cc2ccccc2[C@@H](c2ccccc2)C1 (relative stereo) [(−)-trans-PAT, (1R,3S)-(−)-trans-1-phenyl-3-dimethylamino-1,2,3,4-tetrahydronaphthalene]
difference in affinity at 5-HT2A and 5-HT2C receptors (human 5-HT2C receptor [1]): 10 times
nH (Hill slope), 5-HT2C binding (human 5-HT2C receptor [1]): 0.9 ± 0.1
maximal reduction of food intake (mice; at 10 mg/kg): about 75%
ED50, reduction of food intake (mice): 4.2 mg/kg
nH, inverse agonism at 5-HT2A receptors (human 5-HT2A receptor [2]): 0.85 ± 0.01
stimulation of PLC/[3H]-IP formation in cells expressing 5-HT2A receptors (human 5-HT2A receptor [2]): does not stimulate
(maximal) inhibition of constitutive signaling at 5-HT2A receptors (human 5-HT2A receptor [2]; 10 μM): 57.6 ± 5.66%
pA2, 5-HT2A receptors (human 5-HT2A receptor [2]; vs serotonin): 6.3
nH, inverse agonism at 5-HT2B receptors (human 5-HT2B receptor [3]): 0.87 ± 0.23
stimulation of PLC/[3H]-IP formation in cells expressing 5-HT2B receptors (human 5-HT2B receptor [3]): does not stimulate
(maximal) inhibition of constitutive signaling at 5-HT2B receptors (human 5-HT2B receptor [3]; 10 μM): 35.3 ± 2.00%
pA2, 5-HT2B receptors (human 5-HT2B receptor [3]; vs serotonin): 5.8
nH (Hill slope), 5-HT2B binding (human 5-HT2B receptor [4]): 1.0 ± 0.001
Ki (human 5-HT2B receptor [4]; [11]): 1.2 µM
Ki (human 5-HT2B receptor [4]; read-out: 5-HT2B receptor affinity Ki, as quoted in text from Table): ~1.2 µM
nH (Hill slope), 5-HT2A binding (human 5-HT2A receptor [5]): 1.1 ± 0.1
Ki (human 5-HT2A receptor [5]; [12]): 410 ± 38 nM
Ki (human 5-HT2A receptor [5]; read-out: 5-HT2A receptor affinity Ki, as quoted in text from Table): ~400 nM
potency (EC50) to activate 5-HT2C receptors greater than 5-HT2C affinity (Ki) (human 5-HT2C receptor [6]): about 2 times
Emax, 5-HT2C activation (human 5-HT2C receptor [6]; CHO cells): 464 ± 10.8 % basal control activity
nH, 5-HT2C activation (human 5-HT2C receptor [6]; CHO cells): 0.75 ± 0.13

COc1cccc([C@H](O)C2CCN(CCc3ccc(F)cc3)CC2)c1OC [M100907]
5-HT2A selectivity over 5-HT2B receptors (5-HT2A): 500 times
5-HT2A selectivity over 5-HT2C receptors (5-HT2A): 15 times

C[C@H]1CNCCc2ccc(Cl)cc21 [lorcaserin]
Ki (5-HT2A receptors [7]): ~112 nM
Ki (5-HT2B receptors [8]): ~174 nM
efficacy, activation of 5-HT2A receptors (5-HT2A receptors [9]): 75%
efficacy, activation of 5-HT2B receptors (5-HT2B receptors [10]): 100%
affinity for 5-HT2C receptors higher than at 5-HT2A receptors (5-HT2C receptors): about 7.5 times
affinity for human 5-HT2C over 5-HT2B receptors (5-HT2C receptors): about 12 times
maximal reduction of food intake (rats; at 24 mg/kg): about 60%
ED50, reduction of food intake (rats): 18 mg/kg

CN(C)[C@H]1Cc2ccccc2[C@@H](c2ccccc2)C1 [(+)-cis-PAT]
nH (Hill slope), 5-HT2C binding (human 5-HT2C receptor [1]): 0.9 ± 0.1
nH (Hill slope), 5-HT2B binding (human 5-HT2B receptor [4]): ~1.0
Ki (human 5-HT2B receptor [4]; [11]): ~5 µM
nH (Hill slope), 5-HT2A binding (human 5-HT2A receptor [5]): 0.9 ± 0.2
Ki (human 5-HT2A receptor [5]; [12]): 780 ± 2 nM

[3H]C([3H])(N1CCC(C(=O)c2ccc(F)cc2)CC1)C([3H])([3H])n1c(=O)[nH]c2ccccc2c1=O [[^3H]-Ketanserin, reference compound]
Bmax, 5-HT2A receptors (human 5-HT2A receptor [5]; saturation binding): 1.73 ± 0.11 pmol/mg protein

CN(C)[C@@H]1Cc2ccccc2[C@H](c2ccccc2)C1 [(−)-cis-PAT]
nH (Hill slope), 5-HT2C binding (human 5-HT2C receptor [1]): 0.90 ± 0.04
nH (Hill slope), 5-HT2B binding (human 5-HT2B receptor [4]): ~1.0
Ki (human 5-HT2B receptor [4]; [11]): ~10 µM
nH (Hill slope), 5-HT2A binding (human 5-HT2A receptor [5]): 1.0 ± 0.1
Ki (human 5-HT2A receptor [5]; [12]): 1500 ± 2 nM
